Molecules are shown by their SMILES. Where a SMILES comes first, the peptide text is derived from it.

Data set [1] addresses T1, BTLA/HVEM complex (Homo sapiens, UniProt Q92956).
T1 construct: purchased ACROBiosystems HVM-H52E9 (HVEM-His); BTA-H5255 (BTLA-Fc)
T1 sequence (Q92956 39-202 limits assumed): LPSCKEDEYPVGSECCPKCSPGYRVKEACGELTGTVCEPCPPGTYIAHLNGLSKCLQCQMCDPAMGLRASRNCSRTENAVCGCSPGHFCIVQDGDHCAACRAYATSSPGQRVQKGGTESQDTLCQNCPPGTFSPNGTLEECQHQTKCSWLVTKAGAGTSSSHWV
As to the kind of experiment: ELISA inhibition of BTLA/HVEM complex formation. It counts as biochemical. To be noted: immobilized HVEM-His, BTLA-Fc 5 μg/mL, PBS-T, 37 °C, mean of three independent experiments; for inhibition at 16.67 µM: peptide 16.67 μM; for inhibition at 50 µM: peptide 50 μM; for inhibition at 150 µM: peptide 150 μM. How it is done:
In the subsequent stage of the study, the potential of the obtained compounds to inhibit the interaction between BTLA and HVEM proteins was evaluated using ELISA, following the methodology described in our previous studies. , HVEM was immobilized on the plate and incubated with peptides at three different concentrations, followed by the addition of Fc-tagged BTLA. Detection was carried out using horseradish peroxidase (HRP) conjugated with anti-human IgG and 3,3′,5,5′-tetramethylbenzidine (TMB) as a substrate. Signal intensity was directly proportional to the amount of BTLA bound to HVEM and inversely proportional to the inhibitory activity of the tested peptides. As a control, BTLA and HVEM were incubated in the absence of peptides.
Recombinant human HVEM protein with a His tag was purchased from ACROBiosystems, Newark, DE, USA (no. HVM-H52E9). Recombinant human protein BTLA-Fc and LIGHT-Fc were also purchased from ACROBiosystems, Newark, DE, USA (no. BTA-H5255 and no. LIT-H5269).
ELISA was performed using transparent 96-well NUNC Maxisorp plates (Thermo Fisher Scientific, Waltham, MA, USA). In the first step, HVEM-His, dissolved in PBS at a concentration of 5 μg/mL (100 μL/well), was immobilized on the plate by overnight incubation at 4 °C. Wells were then blocked with 5% bovine serum albumin (BSA) in PBS containing 0.05% Tween 20 (PBS-T) (200 μL/well). Next, peptides dissolved in PBS-T at concentrations of 150, 50, and 16.67 μM were added to the wells (100 μL/well). Following this, BTLA-Fc in PBS-T at a concentration of 5 μg/mL (100 μL/well) was applied. In the next step, goat anti-human IgG antibody conjugated with the HRP (Bio-Rad Laboratories, Hercules, CA, USA) in PBS-T at a ratio of 1:30,000 (v/v) was added (100 μL/well). Colorimetric detection was performed by adding 100 μL of TMB substrate (Thermo Fisher Scientific, Waltham, MA, USA) to each well and incubating the plate in the dark. At each stage, plates were incubated at 37 °C with continuous shaking for 1 h (except TMB, which was incubated for 15 min). After each incubation, wells were washed five times with PBS-T. Absorbance was measured using an Infinite M200 Pro Reader (Tecan Group Ltd., Männedorf, Switzerland) at wavelengths of 650 nm (measurement wavelength) and 492 nm (reference wavelength). Inhibition assays for the HVEM/LIGHT complex were conducted using the same approach, except that LIGHT was used instead of BTLA. The BTLA/HVEM and HVEM/LIGHT complexes without peptides served as controls. Inhibition percentages were calculated based on the assumption that PBS-T has no effect on the formation of BTLA/HVEM or HVEM/LIGHT complexes. Each ELISA was conducted in at least three independent replicates. The data were analyzed using GraphPad Prism 8 software (San Diego, CA, USA).

Data set [2] has as its system Jurkat E6.1 cells. The note with it: 150 µM. How it is done:
(§1) Before conducting cellular assays, the effects of the peptides on cell viability in Jurkat E6.1 and T cell stimulator (TCS) cell lines, as well as their stability in cell culture supernatant, were evaluated. Jurkat E6.1 cells are human T cell acute lymphoblastic leukemia cells, while TCS is a modified murine thymoma cell line (BW5147). The cellular platforms described below are based on these cells. […] The stability of the peptides in supernatant collected from cells after 24 h of incubation was also assessed.
(§2) Comparison of the binding affinity obtained from SpS and MM-GBSA
(§3) Table S3. Experimental and theoretical binding affinities for the BTLA/HVEM and HVEM/peptide complexes. Experimental Kd values obtained from SpS were used to calculate the corresponding ΔG, while theoretical ΔG values were obtained from MM-GBSA analysis. protein/protein ΔG ΔG obtained from or K [µmol] SD calculated SD MM-GBSA SD
(§4) The cytotoxicity of the peptides against two cell lines, Jurkat E6.1 and TCS, was examined. To estimate the number of viable cells, the CellTiter-Glo® luminescence-based assay

Data set [3] concerns T cell stimulator (TCS) cell line (BW5147). To be noted: 150 µM. How it is done:
as §1, §2, §3, §4

Data set [4] relates to BTLA/HVEM interaction. The data set is described as follows: Cellular reporter assay, HVEM reporter cells (JE6.1-NF-κB::eGFP) stimulated with TCS-BTLA. To be noted: 30 min preincubation, 24 h coculture, NF-κB::eGFP by flow cytometry, mean of four independent experiments in duplicate; for Inhibition - Cellular assay 16.67 µM: peptide 16.67 μM; for Inhibition - Cellular assay 50 µM: peptide 50 μM; for Inhibition - Cellular assay 150 µM: peptide 150 μM. In kind it is cell-based, human. The method, then: In the next step of the study, the inhibitory properties of the designed peptides were evaluated using previously described cell-based assays. The experiment utilized reporter cells expressing HVEM (JE6.1-NF-κB::eGFP) and T cell stimulator cells expressing BTLA (TCS-BTLA). Activation of the reporter cells by TCS followed a two-signal model. The first is generated through the interaction between the T cell receptor–cluster of differentiation 3 (TCR–CD3) complex on the surface of the reporter cells and a membrane-bound antihuman CD3 single-chain antibody fragment (mAb aCD3) expressed on the TCS cells. The second signal is provided by the binding of HVEM and BTLA, which in this assay results in a strong costimulatory signal via HVEM. Activation of the reporter cells leads to the expression of nuclear factor kappa light chain enhancer of activated B cells (NF-κB), which correlates with the level of enhanced green fluorescent protein (eGFP), measured by flow cytometry. In the absence of peptides, NF-κB expression is normalized to 100%. Disruption of the BTLA/HVEM interaction by peptides results in a concentration-dependent decrease in NF-κB levels. In this study, HVEM-expressing reporter cells were stimulated with BTLA-expressing TCS cells in the presence or absence of tested peptides at three different concentrations.
Cellular studies were performed in the same procedure as we described previously for gD- and BTLA-derived peptides. , The peptides were dissolved in the medium, and their final concentrations in wells were 150, 50, and 16,7 μM. Briefly, reporter cells expressing HVEM (JE6.1-NF-κB::eGFP) (5 × 10^4 cells/well) were preincubated with peptides for 30 min in a 96-well flat-bottom plate. Subsequently, the second cell line expressing BTLA (TCS BTLA) or LIGHT (TCS LIGHT) (2 × 10^4 cells/well) was added and cocultured for 24 h at 37 °C in an atmosphere of 5% CO2. Next, an APC-conjugated mCD45.2 antibody to exclude TCS from the reporter cells was added. The expression of the reporter gene (eGFP) was measured via flow cytometry using a CytoFLEX flow cytometer (Beckman Coulter Inc., Brea, CA, USA), and the results were analyzed using FlowJo v10.10 (FlowJo LLC, Ashland, OR, USA). The data were analyzed using GraphPad Prism 8 software (San Diego, CA, USA).

On to `CC[C@@H]1NC(=O)[C@H](CC(C)C)NC(=O)[C@H](Cc2ccccc2)NC(=O)[C@H](C(C)C)NC(=O)[C@@H](NC(=O)[C@H](Cc2ccccc2)NC(C)=O)CSSC[C@@H](C(=O)N[C@@H](CC(C)C)C(N)=O)NC(=O)[C@H](CC(C)C)NC(=O)[C@H](CCC(N)=O)NC(=O)[C@H](CCCCN)NC(=O)[C@H](CC(C)C)NC(=O)[C@H](CO)NC(=O)[C@H]([C@@H](C)O)NC(=O)[C@H](CCC(=O)O)NC(=O)[C@@H]2CCCN2C(=O)[C@H](CO)NC(=O)[C@H](CC)NC(=O)[C@H](CC(=O)O)NC(=O)CNC(=O)[C@H](CO)NC(=O)[C@H](CCCNC(=N)N)NC(=O)[C@H](CC(=O)O)NC(=O)[C@H](CCCCN)NC1=O` [B2, CD160(56–79)^(V57C,C61X,C68X,R78C)] (HELM PEPTIDE1{[ac].F.C.V.F.L.[Abu].K.D.R.S.G.D.[Abu].S.P.E.T.S.L.K.Q.L.C.L.[am]}$PEPTIDE1,PEPTIDE1,3:R3-24:R3$$$V2.0), for which, in data set [1], the inhibition at 16.67 µM is -3.89% and the inhibition at 50 µM is -2.56%. Further, the “Cell viability, Jurkat E6.1” value in data set [2] is 47%. For the same compound, the “Cell viability, TCS” value in data set [3] is reported as 9%.

Turning to `CC(=O)N[C@@H](Cc1ccccc1)C(=O)N[C@H](C(=O)N[C@H](C(=O)N[C@@H](Cc1ccccc1)C(=O)N[C@@H](CC(C)C)C(=O)N[C@H]1CSSC[C@@H](C(=O)N[C@@H](CO)C(=O)N2CCC[C@H]2C(=O)N[C@@H](CCC(=O)O)C(=O)N[C@H](C(=O)N[C@@H](CO)C(=O)N[C@@H](CC(C)C)C(=O)N[C@@H](CCCCN)C(=O)N[C@@H](CCC(N)=O)C(=O)N[C@@H](CC(C)C)C(=O)N[C@@H](CCCNC(=N)N)C(=O)N[C@@H](CC(C)C)C(N)=O)[C@@H](C)O)NC(=O)[C@H](CC(=O)O)NC(=O)CNC(=O)[C@H](CO)NC(=O)[C@H](CCCNC(=N)N)NC(=O)[C@H](CC(=O)O)NC(=O)[C@H](CCCCN)NC1=O)C(C)C)C(C)C` [B5, CD160(56–79)] (HELM PEPTIDE1{[ac].F.V.V.F.L.C.K.D.R.S.G.D.C.S.P.E.T.S.L.K.Q.L.R.L.[am]}$PEPTIDE1,PEPTIDE1,7:R3-14:R3$$$V2.0), in data set [1], the inhibition at 16.67 µM is -7.56%, the inhibition at 50 µM is -7.13% and the inhibition at 150 µM is -4.6%. In data set [4], the “Inhibition - Cellular assay 16.67 µM” value is recorded as 12.02%, the “Inhibition - Cellular assay 50 µM” value is 12.02% and the “Inhibition - Cellular assay 150 µM” value stood at 2.50%. In data set [2], the “Cell viability, Jurkat E6.1” value stood at 75%.

In the case of `CC[C@@H]1NC(=O)[C@@H](NC(=O)[C@H](Cc2ccccc2)NC(C)=O)CSSC[C@@H](C(=O)N[C@@H](CCCCN)C(N)=O)NC(=O)[C@H](CO)NC(=O)[C@H]([C@@H](C)O)NC(=O)[C@H](CCC(=O)O)NC(=O)[C@@H]2CCCN2C(=O)[C@H](CO)NC(=O)[C@H](CC)NC(=O)[C@H](CC(=O)O)NC(=O)CNC(=O)[C@H](CO)NC(=O)[C@H](CCCNC(=N)N)NC(=O)[C@H](CC(=O)O)NC(=O)[C@H](CCCCN)NC1=O` [C2, CD160(59–75)^(L60C,C61X,L74C)] (HELM PEPTIDE1{[ac].F.C.[Abu].K.D.R.S.G.D.[Abu].S.P.E.T.S.C.K.[am]}$PEPTIDE1,PEPTIDE1,3:R3-17:R3$$$V2.0), in data set [1], the inhibition at 16.67 µM is -0.94%, the inhibition at 50 µM is 1% and the inhibition at 150 µM was 0.77%.

On to `CC(=O)N[C@@H](Cc1ccccc1)C(=O)N[C@@H](CC(C)C)C(=O)N[C@H]1CSSC[C@@H](C(=O)N[C@@H](CO)C(=O)N2CCC[C@H]2C(=O)N[C@@H](CCC(=O)O)C(=O)N[C@H](C(=O)N[C@@H](CO)C(=O)N[C@@H](CC(C)C)C(=O)N[C@@H](CCCCN)C(N)=O)[C@@H](C)O)NC(=O)[C@H](CC(=O)O)NC(=O)CNC(=O)[C@H](CO)NC(=O)[C@H](CCCNC(=N)N)NC(=O)[C@H](CC(=O)O)NC(=O)[C@H](CCCCN)NC1=O` [C3, CD160(59–75)] (HELM PEPTIDE1{[ac].F.L.C.K.D.R.S.G.D.C.S.P.E.T.S.L.K.[am]}$PEPTIDE1,PEPTIDE1,4:R3-11:R3$$$V2.0), for which, in data set [1], the inhibition at 16.67 µM amounted to 1.86%, the inhibition at 50 µM was 2.02% and the inhibition at 150 µM came to 0.4%. Moreover, in data set [4], the “Inhibition - Cellular assay 16.67 µM” value is listed as 5.70%, the “Inhibition - Cellular assay 50 µM” value is reported as 4.25% and the “Inhibition - Cellular assay 150 µM” value is 4.78%.

These data come from article PMC12714101, “CD160-Derived Peptide as a Bidirectional Inhibitor Toward Immune Checkpoints BTLA/HVEM and HVEM/LIGHT” (Journal of Medicinal Chemistry, 2025).
